Target: Neuraminidase (Influenza A virus (strain A/Brevig Mission/1/1918 H1N1), UniProt Q9IGQ6)
Experiment: Inhibition of recombinant influenza A virus H1N1 A/Bervig_Mission/1/18 sialidase activity using 4-methylumbelliferyl-alpha-D-N-acetylneuraminic acid sodium salt hydrate as substrate by fluorimetric analysis

Neuraminidase, sequence (Q9IGQ6 whole entry): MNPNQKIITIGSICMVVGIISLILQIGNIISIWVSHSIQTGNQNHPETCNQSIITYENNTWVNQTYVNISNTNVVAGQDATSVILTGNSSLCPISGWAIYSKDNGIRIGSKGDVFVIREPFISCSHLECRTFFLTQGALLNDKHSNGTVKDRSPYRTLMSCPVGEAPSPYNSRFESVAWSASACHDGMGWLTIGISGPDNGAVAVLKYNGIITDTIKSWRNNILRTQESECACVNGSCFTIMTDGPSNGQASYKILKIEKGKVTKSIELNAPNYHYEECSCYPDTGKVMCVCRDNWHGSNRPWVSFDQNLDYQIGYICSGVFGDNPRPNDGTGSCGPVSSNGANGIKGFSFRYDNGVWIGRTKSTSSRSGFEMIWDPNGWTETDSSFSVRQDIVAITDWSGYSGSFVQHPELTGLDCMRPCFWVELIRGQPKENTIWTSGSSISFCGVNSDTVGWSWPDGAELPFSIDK

SMILES	IC50
CC(C)=CC=C(OC(=O)C(C)C)c1cc(O)c2c(O)ccc(O)c2c1O	40.5 µM
CC(C)=CC=C(OC(=O)CC(C)(C)O)c1cc(O)c2c(O)ccc(O)c2c1O [(R)-1-(5,8-dihydroxy-1,4-dioxo-1,4-dihydronaphthalen-2-yl)-4-methylpent-3-enyl 3-hydroxy-3-methylbutanoate]	40.5 µM

— BindingDB's records for doi:10.1016/j.bmc.2012.01.011 (Korea Research Institute of Bioscience and Biotechnology, 2012)
